Data on three compounds can be found in patent US10278999B2, “Synthesis of Nuxia oppositifolia nanoparticles” (KING SAUD UNIVERSITY, priority 2017, dated 2019).

Experiment in all cases: Antimicrobial activity, agar diffusion technique
Holding throughout (format): cell-based
Common to all, as to details: mean ± S.D. beyond well diameter (6 mm), 100 μl of samples

For test [1], the system named is Geotricum candidum (RCMB 05097). As to the method: (§1) The antimicrobial effect of N. oppositifolia nanoparticles synthesized according to Example 1 were evaluated against gram positive bacteria, gram negative bacteria, as well as fungi.
(§2) The antimicrobial effect of N. oppositifolia nanoparticles synthesized according to Example 2 were evaluated against gram positive bacteria, gram negative bacteria, as well as fungi.

In test [2] the test system is Candida albicans (RCMB 05036). The protocol: as §1, §2
Test [3] has as its system Absidia corymbifera (RCMB 02564). As to the method: as §1, §2
The test system of test [4] is Staphylococcus epidermidis (RCMB 010024). As to the method:
as §1, §2

For test [5], the system named is Streptococcus pyogenes (RCMB 010015). The protocol: as §1, §2
The subject of test [6] is Proteous vulgaris (RCMB 010085). The protocol: as §1, §2
The test system of test [7] is Salmonella enteritidis (RCMB 010084). As to the method:
as §1, §2

Test [8] has as its system Klebsiella pneumoniae (RCMB 0010093). As to the method:
as §1, §2

For `C[C@@H]1[C@H](O)[C@@H](C)/C=C/C=C/C=C/C=C/C=C/C=C/C=C/[C@H](O[C@@H]2O[C@H](C)[C@@H](O)[C@H](N)[C@@H]2O)C[C@@H]2O[C@](O)(C[C@@H](O)C[C@@H](O)[C@H](O)CC[C@@H](O)C[C@@H](O)CC(=O)O[C@H]1C)C[C@H](O)[C@H]2C(=O)O` [Amphotericin B], the entries for the “Zone of Inhibition (±SD)” value in test [1], in test [2] and in test [3] were 27.0 ± 0.20 mm, 25.7 ± 0.10 mm and 23.0 ± 0.10 mm, respectively.
For the compound `CC1(C)S[C@@H]2[C@H](NC(=O)[C@H](N)c3ccccc3)C(=O)N2[C@H]1C(=O)O` [Ampicillin], the “Zone of Inhibition (±SD)” value was found to be 25.0 ± 0.18 mm in test [4] and 26.3 ± 0.34 mm in test [5].
Regarding Gentamycin, the “Zone of Inhibition (±SD)” value in test [6] is recorded as 23.4 ± 0.30 mm; in test [7], 25.2 ± 0.18 mm; in test [8], 26.4 ± 0.15 mm.
